Reference: patent publication US6545053B1, “Tricyclic compounds and drug compositions containing same” (Asahi Kasei Kogyo Kabushiki Kaisha, priority 1996, dated 2003)
Where a name gives a salt, the structure may show the parent alone. Read-outs that look alike come from different tables or passages of the source.

What was measured:
male ddy mice [1] = assay: Lipolytic effect in mice (serum free fatty acid); format: in vivo
Method: Blood Sugar Decreasing Effect and Lipolytic Effect Male ddy mice (supplied from the firm Nippon Charles Liver) of 6 weeks age were subcutaneously administered with glucose in a dose of 2 g/kg. The animals were also treated with either one of test compounds via oral or intraperitoneal administration in a dose of 0.1 ml per 10 grams of body weight. After one hour, blood sample was taken from abdominal aorta, from which serum was separated and served as the sample. Lipolytic Effect Amount of free fatty acid in the samples was determined using NEFA HA TEST WAKO (of the firm Wako Pure Chemical). […] Therefore, it was shown that they are useful as medicament for preventive and therapeutic treatment of hyperlipemia and for therapeutic treatment of obesity.

male ddy mice [2] = assay: Toxicity test in mice; format: in vivo; settings: dose of 100 mg/kg; 8 mice
Method: The compounds of Examples 7 and 31 were administered to 6 week age male ddy mice (supplied from the firm Nippon Charles Liver) at a dose of 100 mg/kg.

canine adipocytes = assay: Lipolytic activity in canine fatty cell (glycerol release); format: cell-based, dogs; settings: Canis lupus familiaris, Adipocyte; for EC50: 1 h, glycerol release, canine adipocytes, read-out: ED50 (the source's name); for Emax: read-out: Intrinsic activity (%)
Method: Lipolytic Activity in Canine Fatty Cell
Adipose tissues in the omentum were collected from dogs and minced and washed. Krebs-Ringer buffer solution containing 1 mg/ml Collagenase (Sigma) and 1% of bovine serum albumin was added in an amount of 3 ml per one gram of the tissue. These cells were then incubated at 37° C. for 30 minutes with shaking and then undigested tissues were removed with a nylon filter. The resulting adipocytes were washed four times with Krebs-Ringer buffer, and then the concentration of cells was diluted to 2×10^5/ml with Krebs-Ringer buffer solution containing 4% of bovine serum albumin. These cells were transferred to Eppendorf tubes each in an amount of 300 μl.
Each 300 μl of a culture medium containing the test compounds were added to these tubes and was held at 37° C. for 1 hour whith shaking. Stimulation was stoped by cooling with ice. After centrifugation, the adipocytes were taken off with an aspirator, whereupon the glycerol was determined using F-KIT GLTCEROL (Behringer-Manheim).

male ddy mice [3] = assay: Blood sugar decreasing effect in glucose-loaded mice; format: in vivo; settings: glucose 2 g/kg s.c., after one hour
Method: Blood Sugar Decreasing Effect and Lipolytic Effect Male ddy mice (supplied from the firm Nippon Charles Liver) of 6 weeks age were subcutaneously administered with glucose in a dose of 2 g/kg. The animals were also treated with either one of test compounds via oral or intraperitoneal administration in a dose of 0.1 ml per 10 grams of body weight. After one hour, blood sample was taken from abdominal aorta, from which serum was separated and served as the sample. Blood Sugar Decreasing Effect The samples prepared as above were analyzed for the serum glucose concentration by Auto analyzer (SUPER Z of the firm M. C. Medical). For the analyzer kit, Glucose II HA TEST WAKO (of the firm Wako Pure Chemical) was used. % decrease in blood sugar=[(A−B)/(A−C)]×100 in which A represents the glucose concentration upon being loaded with glucose, B represents the glucose concentration after administration of the compound and C is the usual level of the glucose concentration. […] Therefore, it was proven that the compound according to the present invention is effective as a medicament for therapeutic and preventive treatment of diabetes.

human β3 = target: T1, human β3 (Homo sapiens, UniProt P13945); assay: Human β3-agonist activity (cAMP in CHO cells transfected with human β3 gene); format: cell-based; settings: for Emax: CHO, read-out: Intrinsic activity (%)
T1 construct: And then full length of human β3 gene was cloned using this fragment as a probe; expressed in transfected cells; host or cells: CHO cells (Chinese hamster ovary), pcDNA3 vector
T1 sequence (P13945 whole entry, the tested form may be a part): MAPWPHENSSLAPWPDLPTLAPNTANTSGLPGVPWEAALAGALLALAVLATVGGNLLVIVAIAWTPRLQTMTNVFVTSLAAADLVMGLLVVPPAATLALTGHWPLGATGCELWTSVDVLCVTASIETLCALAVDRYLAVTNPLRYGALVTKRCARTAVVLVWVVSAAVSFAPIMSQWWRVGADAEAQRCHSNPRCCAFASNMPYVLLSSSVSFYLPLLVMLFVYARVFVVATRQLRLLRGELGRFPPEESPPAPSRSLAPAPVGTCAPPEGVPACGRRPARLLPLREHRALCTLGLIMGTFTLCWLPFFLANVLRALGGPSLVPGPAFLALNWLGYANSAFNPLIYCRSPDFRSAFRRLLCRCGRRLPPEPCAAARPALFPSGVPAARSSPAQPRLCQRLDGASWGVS

Structure (SMILES)	increase of free fatty acid (male ddy mice [1]; oral administration of 30 mg/kg) [%]	fatal cases (male ddy mice [2])	EC50 (canine adipocytes) [nM]	Emax (canine adipocytes) [%]	% decrease in blood sugar (male ddy mice [3]; oral administration) [%]	Emax (human β3) [%]	EC50 (human β3; cAMP, CHO cells with human β3, read-out: ED50 (the source's name)) [nM]	increase of free fatty acid (male ddy mice [1]; oral administration of 100 mg/kg) [%]	EC50 (human β3) [nM]	increase of free fatty acid (male ddy mice [1]; intraperitoneal administration of 10 mg/kg) [%]	% decrease in blood sugar (male ddy mice [3]; intraperitoneal administration) [%]
OC(CNCCOc1ccc2c(c1)[nH]c1ccccc12)c1ccccc1 (racemic) [Example 31, (±)-2-N-[2-(9H-Carbazol-2-yloxy)ethyl]amino]-1-phenyethanol Hydrochloride]	32.4	no fatal case	7700	103	34.5	100	2200				
CS(=O)(=O)Nc1cccc(C(O)CNCCOc2ccc3c(c2)[nH]c2ccccc23)c1.Cl (racemic) [Example 7, (±)-N-[3-[2-[2-(9H-Carbazol-2-yloxy)ethylamino]-1-hydroxyethyl]phenyl]methanesulfonamide Hydrochloride]		no fatal case	1200	90		95		47.7	18		
CS(=O)(=O)Nc1cc(C(O)CNCCOc2ccc3c(c2)[nH]c2ccccc23)ccc1O.Cl (racemic) [Example 2, (±)-N-[5-[2-[2-(9H-Carbazol-2-yloxy)ethylamino]-1-hydroxyethyl]-2-hydroxyphenyl]methanesulfonamide Hydrochloride]			56	82		120			0.18	67.2	77.1
